# Measured values: BindingDB's records for doi:10.7270/Q2NP22V6 (NMMLSC, 2007)
# Molecular target: T1, N-formyl peptide receptor 2 (Homo sapiens, UniProt P25090)
# T1 sequence (P25090 whole entry): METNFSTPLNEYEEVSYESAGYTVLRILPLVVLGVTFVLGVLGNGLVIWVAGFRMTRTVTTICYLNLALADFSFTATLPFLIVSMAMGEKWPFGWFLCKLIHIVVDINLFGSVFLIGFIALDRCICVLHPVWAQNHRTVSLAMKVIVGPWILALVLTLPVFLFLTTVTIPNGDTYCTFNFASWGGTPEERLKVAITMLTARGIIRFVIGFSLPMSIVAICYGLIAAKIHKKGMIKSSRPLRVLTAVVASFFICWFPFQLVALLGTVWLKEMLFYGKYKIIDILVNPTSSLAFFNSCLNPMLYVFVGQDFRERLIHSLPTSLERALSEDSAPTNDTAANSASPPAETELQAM
# Experiment: FPRL1 fluorescent ligand binding inhibitors, dose response, cell-based, flow cytometry, Ki from IC50 (AID 766)
# Conditions: not given
row,Structure (SMILES),IC50 [µM]
1,"COc1ccc(-c2cn3cccnc3n2)cc1NC(=O)C(C)C [N-(5-imidazo[1,2-a]pyrimidin-2-yl-2-methoxy-phenyl)-2-methyl-propanamide]",3.6
2,COc1ccc(-c2cn3cccnc3n2)cc1NC(=O)C1CCCC1 [MLS000045945],> 66.1
3,COc1ccc(-c2cn3cccnc3n2)cc1NC(=O)C1CC1 [MLS000045944],6.7
4,"CCC(=O)Nc1cc(-c2cn3cccnc3n2)ccc1OC [N-(5-imidazo[1,2-a]pyrimidin-2-yl-2-methoxy-phenyl)propanamide]",10.7

# The remaining lines, values ahead:
row,IC50 [µM],Structure (SMILES)
1,> 50.5,"CCOC(=O)N1CCN(c2nc(-c3ccc(OC)c(OC)c3)cc(C(F)(F)F)n2)CC1 [4-[4-(3,4-dimethoxyphenyl)-6-(trifluoromethyl)-2-pyrimidinyl]-1-piperazinecarboxylic acid ethyl ester]"
2,> 50,"COc1ccc(-c2cc(C(F)(F)F)nc(N3CCN(c4ccccc4)CC3)n2)cc1OC [4-(3,4-dimethoxyphenyl)-2-(4-phenyl-1-piperazinyl)-6-(trifluoromethyl)pyrimidine]"
3,> 41.6,"COc1ccc(-c2cc(C(F)(F)F)nc(N3CCN(C(c4ccccc4)c4ccccc4)CC3)n2)cc1OC [2-(4-benzhydrylpiperazin-1-yl)-4-(3,4-dimethoxyphenyl)-6-(trifluoromethyl)pyrimidine]"
4,9.9,"COc1ccc(CC(=O)Nc2cc(-c3cn4cccnc4n3)ccc2OC)cc1 [N-(5-imidazo[1,2-a]pyrimidin-2-yl-2-methoxy-phenyl)-2-(4-methoxyphenyl)acetamide]"
5,> 57.5,"O=C(N1CCN(c2nc(-c3ccccc3)c3ccccc3n2)CC1)C(F)(F)F [2,2,2-trifluoro-1-[4-(4-phenyl-2-quinazolinyl)-1-piperazinyl]ethanone]"

# Same assay, conditions: inactive by the depositor's call
row,IC50 [µM],Structure (SMILES)
1,16.5,"COc1ccc(-c2cc(C(F)(F)F)nc(N3CCN(Cc4ccccc4)CC3)n2)cc1OC [2-(4-benzylpiperazin-1-yl)-4-(3,4-dimethoxyphenyl)-6-(trifluoromethyl)pyrimidine]"
